Results as given in US7074922B2, “Method for producing the tautomeric form of (1) of 2,4,6-trianilino-p-(carbo-1′-ethylhexyl-1′oxyl)-1, 3, 5-triazine” (BASF Aktiengesellschaft, priority 2002, dated 2006).

Experiment: Storage stability of solutions in cosmetic oils (clouding and precipitation)
Format: physicochemical
Conditions: after 2 days
Text: Storage Stability of Solutions of the Tautomeric Form I in Cosmetic Oils
Both solutions were still clear after 2 days.

With CCCCC(CC)COC(=O)c1ccc(Nc2nc(Nc3ccc(C(=O)OCC(CC)CCCC)cc3)nc(Nc3ccc(C(=O)OCC(CC)CCCC)cc3)n2)cc1 (centres unmarked) [I, 2,4,6-trianilino-p-(carbo-2′-ethylhexyl-1′-oxy)-1,3,5-triazine] the “appearance of solution on storage” value (solution in C8–C10-coconut fatty acid triglyceride) was “still clear” and the “appearance of solution on storage” value (solution in cetylstearyl 2-ethylhexanoate) was “still clear”.
